From patent publication US4317914A, “Oxazolines” (Hoffmann-La Roche Inc., priority 1979, dated 1982) come the findings set out here.

Series [1] is described as follows: Toxicity, 10 day test in rats. The note with it: rat, in vivo.
For series [2], the system named is blood glucose. Kind of series: Activity on blood glucose after repeated oral administration, obese-hyperglycemic mouse (4), feed withdrawn. Type of series: in vivo. The note with it: 294 mg/kg p.o., 5 administrations. As for the experimental part: (§1) The preparations containing the test compound were administered to rats and mice as a suspension in 5% gun arabic (10 ml/kg) through a stomach probe. Dogs received the preparations orally in gelatin capsules. The blank values were ascertained from animals which received only the vehicle or a blank capsule. The medication was administered daily at 9:00 a.m. and 3:00 p.m.
(§2) The plasma glucose (Tables 1 and 3) was determined according to the hexokinase method. The plasma was obtained from heparinized blood after decapitating the rats (1) or by puncturing the vena saphena (2), or there was used a filtrate, made protein-free with perchloric acid, of blood removed from the tip of the tail (3), (4), (5). The glucose in the urine was determined directly. In the case of (1), (2) and (4), the feed was withdrawn with the first of five medications.

The test system of series [3] is blood glucose. Put plainly: Activity on blood glucose after repeated oral administration, diabetic rat (3), streptozotocin. The format is in vivo. As to conditions: 132 mg/kg p.o., 7 administrations. On the procedure: as §1, §2
(§3) In the case of (3), female rats received 70 mg/kg of streptozotocin subcutaneously 2 weeks before the test. In the case of (3) and (5), quantitatively controlled feed supply existed.

Series [4] can be described thus: Toxicity, 10 day test in mice. As to conditions: mouse, in vivo.
The test system of series [5] is blood glucose. Kind of series: Activity on blood glucose after repeated oral administration, obese-hyperglycemic mouse (5), quantitatively controlled feed supply. Type of series: in vivo. The note with it: 11 administrations. On the procedure: as §1, §2, §3
Series [6] relates to plasma glucose. Put plainly: Activity on plasma glucose after repeated oral administration, fasted dog (2). The format is in vivo. As to conditions: 5 administrations. On the procedure: as §1, §2
The subject of series [7] is plasma glucose. Put plainly: Activity on plasma glucose after repeated oral administration, fasted rat (1). Type of series: in vivo. As to conditions: for Plasma glucose 3 hours after the last of 5 oral medications: 5 × p.o., *p < 0.05, ***p < 0.001; for Plasma glucose 3 hours after the last medication: ***p < 0.001. As for the experimental part:
as §1, §2

Setting [8] is: 88 mg/kg p.o., 5 administrations.

In general, LD50 refers to the dose at which mortality reaches 50%. High values mean a less toxic substance, low ones a more toxic substance. Turning to `CN(C)c1ccc(C2OC(C)(C)N=C2c2ccccc2)cc1` (centres unmarked) [A, 5-[p-(dimethylamino)phenyl]-2,2-dimethyl-4-phenyl-3-oxazoline], the LD50 at 240 h was found to be 970 mg/kg in series [1] and 220 mg/kg in series [4]. Further, the “Blood glucose 0 hours after the last medication” value was 63 % of blank values in the series on blood glucose [2] (0 h, *p < 0.05); 101 % of blank values in the series on blood glucose [3] (0 h); 83 % of blank values in the series with blood glucose [5] (44 mg/kg p.o.); 66 % of blank values with blood glucose [5] (132 mg/kg p.o., **p < 0.01). The “Blood glucose 1 hour after the last medication” value in the series with blood glucose [2] (1 h) was 74 % of blank values; with blood glucose [3] (1 h), 101 % of blank values; in the series on blood glucose [5] (44 mg/kg p.o.) it was 77 % of blank values; with blood glucose [5] (132 mg/kg p.o., *p < 0.05), 61 % of blank values. The “Blood glucose 3 hours after the last medication” value in the series with blood glucose [2] (3 h) is 71 % of blank values; in the series with blood glucose [3] (3 h), 90 % of blank values; in the series with blood glucose [5] (44 mg/kg p.o.) it was 84 % of blank values; in the series with blood glucose [5] (132 mg/kg p.o., ***p < 0.001), 55 % of blank values. The “Blood glucose 6 hours after the last medication” value in the series with blood glucose [2] (6 h, ***p < 0.001) is reported as 45 % of blank values; with blood glucose [3] (6 h, *p < 0.05) it was 86 % of blank values. The “Plasma glucose 0 hours after the last medication” value in the series with plasma glucose [6] (29 mg/kg p.o., **p < 0.01) is listed as 82 % of blank values; in the series with plasma glucose [6] (88 mg/kg p.o., **p < 0.01), 77 % of blank values; in the series on plasma glucose [7] (88 mg/kg p.o., 5 administrations, 0 h), 76 % of blank values. Further, the “Plasma glucose 1 hour after the last medication” value in the series on plasma glucose [6] (29 mg/kg p.o., *p < 0.05) is given as 75 % of blank values; in the series with plasma glucose [6] (88 mg/kg p.o.) it was 75 % of blank values; in the series on plasma glucose [7] (setting [8]), 76 % of blank values; in the series on plasma glucose [7] (294 mg/kg p.o., 5 administrations, **p < 0.01) it was 57 % of blank values. Besides, the “Plasma glucose 3 hours after the last medication” value in the series with plasma glucose [6] (29 mg/kg p.o., ***p < 0.001) is 77 % of blank values; in the series with plasma glucose [6] (88 mg/kg p.o., *p < 0.05), 78 % of blank values; in the series with plasma glucose [7] (setting [8]), 78 % of blank values; with plasma glucose [7] (294 mg/kg p.o., 5 administrations) it was 58 % of blank values. Besides, the “Plasma glucose 6 hours after the last medication” value is 74 % of blank values in the series on plasma glucose [6] (29 mg/kg p.o., **p < 0.01) and 76 % of blank values with plasma glucose [6] (88 mg/kg p.o., *p < 0.05). The “Plasma glucose 24 hours after the last medication” value with plasma glucose [6] (29 mg/kg p.o.) is 84 % of blank values; in the series with plasma glucose [6] (88 mg/kg p.o., *p < 0.05), 74 % of blank values. The “Plasma glucose 3 hours after the last of 5 oral medications” value in the series with plasma glucose [7] (300 μmol/kg) was 78 % of the blank values; in the series on plasma glucose [7] (1000 μmol/kg), 58 % of the blank values.
Regarding `CCN(CC)c1ccc(C2OC(C)(C)N=C2c2ccccc2)cc1` (centres unmarked) [B, 5-[p-(diethylamino)-phenyl]-2,2-dimethyl-4-phenyl-3-oxazoline], the “Plasma glucose 3 hours after the last of 5 oral medications” value in the series on plasma glucose [7] (300 μmol/kg) was 91 % of the blank values; with plasma glucose [7] (1000 μmol/kg), 77 % of the blank values.
On to `CN(C=O)c1ccc(C2OC(C)(C)N=C2c2ccccc2)cc1` (centres unmarked) [C, 4'-(2,2-dimethyl-4-phenyl-3-oxazolin-5-yl)-N-methylformanilide], for which the “Plasma glucose 3 hours after the last of 5 oral medications” value in the series with plasma glucose [7] (300 μmol/kg) is given as 87 % of the blank values.
For `CNc1ccc(C2OC(C)(C)N=C2c2ccccc2)cc1` (centres unmarked) [D, 5-[p-(methylamino)phenyl]-2,2-dimethyl-4-phenyl-3-oxazoline], the “Plasma glucose 3 hours after the last of 5 oral medications” value in the series on plasma glucose [7] (300 μmol/kg) is on record as 86 % of the blank values; in the series with plasma glucose [7] (1000 μmol/kg), 81 % of the blank values.
